Test results: ChEMBL document CHEMBL5537171, “Design, Synthesis, and Biological Evaluation of Potent and Selective PROTAC Degraders of Oncogenic KRASG12D” (J Med Chem, 2024)
Calls of active or inactive are those of the source. No cut-off for these calls is given here.

Columns and labels:
[1] = system: von Hippel-Lindau disease tumor suppressor/GTPase KRas (Homo sapiens), P01116+P40337 [G12D]; assay: PROTAC activity at VHL/KRAS G12D mutant in human ASPC1 cells assessed as induction of protein degradation at 1 uM incubated for 6 hrs by Western blot analysis; type: cell-based
[2] = AUClast in BALB/c mouse at 10 mg/kg, sc by LC-MS/MS analysis; type: ADME, organism-based; details: in vivo
[3] = Cmax in BALB/c mouse at 10 mg/kg, sc by LC-MS/MS analysis; type: ADME, organism-based; details: in vivo
[4] = system: von Hippel-Lindau disease tumor suppressor/GTPase KRas (Homo sapiens), P01116+P40337 [G12D]; assay: In vivo PROTAC activity at VHL/KRAS G12D mutant in human ASPC1 cells xenografted in BALB/c nude mouse assessed as decrease in DUSP4 mRNA level at 50 mg/kg, sc measured for 24 hrs by RT-qPCR analysis; type: functional, organism-based
[5] = system: von Hippel-Lindau disease tumor suppressor/GTPase KRas (Homo sapiens), P01116+P40337 [G12D]; assay: PROTAC activity at VHL/KRAS G12D mutant in human ASPC1 cells assessed as induction of protein degradation at 1 uM pretreated with 4-(4-((1R,5S)-3,8-diazabicyclo[3.2.1]octan-3-yl)-8-fluoro-2-(((S)-1-methylpyrrolidin-2-yl)methoxy)pyrido[4,3-d]pyrimidin-7-yl)-5-ethyl-6-fluoronaphthalen-2-ol followed by compound treatment for 6 hrs by Western blot analysis; type: cell-based
[6] = Competitive binding affinity to His-tagged VHL/Elongin C/Elongin B (unknown origin) by FP assay; design: species or system Homo sapiens
[7] = species on record: Homo sapiens; assay: Binding affinity to His-tagged VHL/Elongin C/Elongin B/GST-tagged KRAS G12D mutant (unknown origin) incubated for 1 hr by HTRF assay
[8] = system: von Hippel-Lindau disease tumor suppressor/GTPase KRas (Homo sapiens), P01116+P40337 [G12S]; assay: PROTAC activity at VHL/KRAS G12S mutant in human A549 cells assessed as induction of protein degradation at 0.1 uM incubated for 24 hrs by Western blot analysis; type: cell-based
[9] = Competitive binding affinity to His-tagged VHL/Elongin C/Elongin B/KRAS G12D mutant (unknown origin) by FP assay; design: species or system Homo sapiens
[10] = system: von Hippel-Lindau disease tumor suppressor/GTPase KRas (Homo sapiens), P01116+P40337 [G12D]; assay: PROTAC activity at VHL/KRAS G12D mutant in human ASPC1 cells assessed as induction of protein degradation at 1 uM incubated for 6 hrs followed by compound washout measured after 72 hrs by Western blot analysis; type: cell-based
[11] = system: ASPC1; assay: Downregulation of KRT9 level in human ASPC1 cells at 0.1 uM incubated for 6 hrs by DIA-based proteomic analysis; type: functional, cell-based
[12] = AUC (infinity) in BALB/c mouse at 10 mg/kg, sc by LC-MS/MS analysis; type: ADME, organism-based; details: in vivo
[13] = system: von Hippel-Lindau disease tumor suppressor/GTPase KRas (Homo sapiens), P01116+P40337 [G12D]; assay: PROTAC activity at VHL/KRAS G12D mutant in human ASPC1 cells assessed as induction of protein degradation at 1 uM incubated for 24 hrs by Western blot analysis relative to control; type: cell-based
[14] = biological target: T1, von Hippel-Lindau disease tumor suppressor/GTPase KRas (Homo sapiens, UniProt P01116+P40337, G12D); assay: PROTAC activity at VHL/KRAS G12D mutant in human ASPC1 cells assessed as inhibition of pERK level incubated for 24 hrs by Western blot analysis; type: cell-based
[15] = system: von Hippel-Lindau disease tumor suppressor/GTPase KRas (Homo sapiens), P01116+P40337 [G12R]; assay: PROTAC activity at VHL/KRAS G12R mutant in human CAL-62 cells assessed as induction of protein degradation at 0.1 uM incubated for 24 hrs by Western blot analysis; type: cell-based
[16] = system: ASPC1; assay: Antitumor activity in human ASPC1 cells xenografted in BALB/c nude mouse assessed as tumor growth inhibition at 50 mg/kg, sc administered once per three days for 22 days relative to control; type: functional; details: ASPC1, 528 h, time 22 day, read-out: TGI
[17] = system: von Hippel-Lindau disease tumor suppressor/GTPase KRas (Homo sapiens), P01116+P40337 [G12D]; assay: PROTAC activity at VHL/KRAS G12D mutant in human ASPC1 cells assessed as decrease in pERK level at 1 uM incubated for 6 hrs followed by compound washout measured upto 72 hrs by Western blot analysis; type: cell-based
[18] = system: von Hippel-Lindau disease tumor suppressor/GTPase KRas (Homo sapiens), P01116+P40337 [G12D]; assay: PROTAC activity at VHL/KRAS G12D mutant in human ASPC1 cells assessed as decrease in pERK level at 1 uM incubated upto 24 hrs by Western blot analysis; type: cell-based
[19] = Cooperativity factor alpha, ratio of IC50 for His-tagged VHL/Elongin C/Elongin B (unknown origin) to IC50 for His-tagged VHL/Elongin C/Elongin B/KRAS (unknown origin)
[20] = system: ASPC1; assay: Antiproliferative activity against human ASPC1 cells harboring KRAS G12D mutant assessed as inhibition of cell viability incubated for 5 days by Cell Titer Glo assay; type: functional, cell-based; details: ASPC1, 120 h
[21] = Toxicity in BALB/c nude mouse xenografted with human ASPC1 cells assessed as drug tolerance at 50 mg/kg, sc for 22 days; type: organism-based; details: in vivo, 528 h, time 22 day
[22] = system: ASPC1; assay: Downregulation of DUSP4 level in human ASPC1 cells at 0.1 uM incubated for 6 hrs by DIA-based proteomic analysis; type: functional, cell-based
[23] = system: von Hippel-Lindau disease tumor suppressor/GTPase KRas (Homo sapiens), P01116+P40337 [G12D]; assay: PROTAC activity at VHL/KRAS G12D mutant in human ASPC1 cells assessed as induction of protein degradation at 1 uM pretreated with MG-132 followed by compound treatment for 6 hrs by Western blot analysis; type: cell-based
[24] = system: von Hippel-Lindau disease tumor suppressor/GTPase KRas (Homo sapiens), P01116+P40337 [G12V]; assay: PROTAC activity at VHL/KRAS G12V mutant in human SK-CO-1 cells assessed as induction of protein degradation at 0.1 uM incubated for 24 hrs by Western blot analysis; type: cell-based
[25] = Toxicity in BALB/c nude mouse xenografted with human ASPC1 cells assessed as body weight loss at 50 mg/kg, sc for 22 days; type: organism-based; details: in vivo, 528 h, time 22 day
[26] = system: von Hippel-Lindau disease tumor suppressor/GTPase KRas (Homo sapiens), P01116+P40337 [G12D]; assay: PROTAC activity at VHL/KRAS G12D mutant in human ASPC1 cells assessed as induction protein degradation at 1 uM measured for 6 hrs by Western blot analysis relative to control; type: cell-based
[27] = biological target: T1, von Hippel-Lindau disease tumor suppressor/GTPase KRas; assay: PROTAC activity at VHL/KRAS G12D mutant in human AGS cells assessed as induction of protein degradation incubated for 24 hrs by Western blot analysis; type: cell-based
[28] = MRT (infinity) in BALB/c mouse at 10 mg/kg, sc by LC-MS/MS analysis; type: ADME, organism-based; details: in vivo
[29] = biological target: T1, von Hippel-Lindau disease tumor suppressor/GTPase KRas; assay: PROTAC activity at VHL/KRAS G12D mutant in human SNU1 cells assessed as induction of protein degradation incubated for 24 hrs by Western blot analysis; type: cell-based
[30] = system: ASPC1; assay: Downregulation of KRT14 level in human ASPC1 cells at 0.1 uM incubated for 6 hrs by DIA-based proteomic analysis; type: functional, cell-based
[31] = system: von Hippel-Lindau disease tumor suppressor/GTPase KRas (Homo sapiens), P01116+P40337 [G12D]; assay: PROTAC activity at VHL/KRAS G12D mutant in human ASPC1 cells assessed as induction of protein degradation at 1 uM pretreated with chloroquine followed by compound treatment for 6 hrs by Western blot analysis; type: cell-based
[32] = system: ASPC1; assay: Antiproliferative activity against human ASPC1 cells assessed as inhibition of cell viability incubated for 6 hrs followed by compound washout measured after 114 hrs by Cell Titer Glo assay; type: functional, cell-based
[33] = Half life in BALB/c mouse at 10 mg/kg, sc by LC-MS/MS analysis; type: ADME, organism-based; details: in vivo

Chain of von Hippel-Lindau disease tumor suppressor/GTPase KRas (Homo sapiens), P01116+P40337 [G12D] (P01116 whole entry G12D): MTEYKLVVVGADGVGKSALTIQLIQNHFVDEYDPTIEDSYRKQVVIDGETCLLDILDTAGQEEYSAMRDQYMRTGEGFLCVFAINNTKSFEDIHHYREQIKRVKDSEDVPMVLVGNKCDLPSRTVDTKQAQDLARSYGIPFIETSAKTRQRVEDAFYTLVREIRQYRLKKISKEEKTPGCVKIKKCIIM
Chain of von Hippel-Lindau disease tumor suppressor/GTPase KRas (Homo sapiens), P01116+P40337 [G12D] (P40337 whole entry partner): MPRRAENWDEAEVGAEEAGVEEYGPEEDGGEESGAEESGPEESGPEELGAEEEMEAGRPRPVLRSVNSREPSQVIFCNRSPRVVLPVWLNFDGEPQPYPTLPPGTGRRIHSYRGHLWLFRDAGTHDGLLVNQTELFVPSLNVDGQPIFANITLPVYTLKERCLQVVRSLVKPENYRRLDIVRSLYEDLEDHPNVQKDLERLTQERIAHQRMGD
T1 sequence (P01116 whole entry G12D, stated change not applied): as the sequence (P01116 whole entry G12D) above
T1 sequence (P40337 whole entry, stated change not applied): as the sequence (P40337 whole entry partner) above

In the case of `CCc1c(F)ccc2cc(O)cc(-c3ncc4c(N5C[C@H]6CC[C@@H](C5)N6)nc(OC[C@@H]5CCCN5CCCCOCC(=O)N[C@H](C(=O)N5C[C@H](O)C[C@H]5C(=O)N[C@@H](C)c5ccc(-c6scnc6C)cc5)C(C)(C)C)nc4c3F)c12`, the Activity [1] is reported as “Active”, the AUC(0-t) [2] is reported as 4470 ng·h/mL and the Cmax [3] is reported as 2080 ng/mL. The Activity [4] was “Active”, the Activity [5] was “inactive” and the IC50 [6] was 299 nM. The Activity [7] was “Active”, the Activity [8] was “inactive” and the IC50 [9] was 18.8 nM. The Activity [10] was “Active”, the Activity [11] was “Active” and the AUC(0-inf) [12] was 5060 ng·h/mL. The Activity [13] was 95.1%, the IC50 [14] was 52.9 nM and the Activity [15] was “inactive”. For the same molecule, the inhibition in vivo at 50 mg/kg [16] was 50.9%, the Activity [17] was “Active” and the Activity [18] was “Active”. For the same molecule, the Ratio IC50 [19] was 15.9, the IC50 [20] was 60 nM and the Activity [21] was “Non-Toxic”. The Activity [22] was “Active”, the Activity [23] was “inactive” and the Activity [24] was “inactive”. The Activity [25] was “Non-Toxic”, the Activity [26] was 95% and the DC50 [27] was 7.49 nM. For the same molecule, the MRT inf [28] was 9.33 h, the DC50 [29] was 19.8 nM and the Activity [30] was “Active”. The Activity [31] was “Active”, the IC50 [32] was 231 nM and the half-life [33] was 8.7 h.
